Publication PMC6042793 (PLoS ONE, 2018)
pIC50: −log10 of the molar value.

Columns and labels:
[1] = tested on: sialidase activity of A/Shizuoka/30/2014 (H1N1pdm), H275Y; type: biochemical, influenza A virus (H1N1pdm); details: pH 6.5
[2] = tested on: sialidase activity of A/Shizuoka/1573/2009 (H1N1pdm), H275Y; type: biochemical, influenza A virus (H1N1pdm); details: pH 6.5
[3] = molecular target: viral sialidase activity of A/Shizuoka/17/2016 (H1N1pdm) (Influenza A virus, UniProt A0A0X9QTS2); type: biochemical; details: read-out: IC50 values in the sialidase inhibition assay
[4] = molecular target: viral sialidase activity of A/Shizuoka/19/2016 (H1N1pdm) (Influenza A virus, UniProt A0A0X9QTS2); type: biochemical; details: read-out: IC50 values in the sialidase inhibition assay
[5] = molecular target: viral sialidase activity of A/Shizuoka/30/2014 (H1N1pdm), H275Y (Influenza A virus, UniProt W8DXJ8, H275Y); type: biochemical
[6] = molecular target: viral sialidase activity of A/Shizuoka/1573/2009 (H1N1pdm), H275Y (Influenza A virus, UniProt C3W5S3, H275Y); type: biochemical; details: read-out: IC50 values in the sialidase inhibition assay

SMILES | BTP3 fluorescence on the membrane in the presence of NAI [1] | BTP3 fluorescence on the membrane in the presence of NAI [2] | pIC50 [3] | pIC50 [4] | IC50 for A/Shizuoka/30/2014 relative to that for A/Shizuoka/1573/2009 [5] [fold] | pIC50 ([5]; read-out: IC50 values in the sialidase inhibition assay) | pIC50 [6]
CCOC(=O)C1=C[C@@H](OC(CC)CC)[C@H](NC(C)=O)[C@@H](N)C1 [OV, oseltamivir] | strong fluorescence | strong fluorescence |  |  |  |  | 
CCC(CC)[C@H](NC(C)=O)[C@@H]1[C@H](O)[C@@H](C(=O)O)C[C@H]1N=C(N)N [PV, peramivir] | strong fluorescence | strong fluorescence | 10.30 | 10.30 | 1.9 | 7.10 | 7.39
